In US10597388B2, “Pyridazinone herbicides” (FMC CORPORATION, priority 2014, dated 2020):

Columns and labels:
Assay in all cases: Test E greenhouse herbicide test, pre- and postemergence
Assay type in all cases: in vivo
[1] = test system: pigweed, palmer (palmer pigweed, Amaranthus palmeri)
Procedure, shortened: (§1)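 Compounds in surfactant-containing solvent are applied to soil right after sowing (silt loam) and, in parallel, to 1- to 4-leaf plants in a peat-based medium. Weed control is scored visually on a 0 (none) to 100 (complete) scale at 14 to 21 d.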

[2] = test system: dayflower (Virginia (VA) dayflower, Commelina virginica)
Procedure, shortened: as §1

[3] = test system: Italian ryegrass (Lolium multiflorum)
Procedure, shortened: as §1

[4] = test system: lambsquarters (Chenopodium album); conditions: Preemergence
Procedure, shortened: as §1

[5] = test system: foxtail, green (green foxtail, Setaria viridis); conditions: Preemergence
Procedure, shortened: as §1

[6] = test system: nutsedge, yellow (yellow nutsedge, Cyperus esculentus); conditions: Preemergence
Procedure, shortened: as §1

[7] = test system: barnyardgrass (Echinochloa crus-galli)
Procedure, shortened: as §1

[8] = test system: arrowleaf sida (Sida rhombifolia)
Procedure, shortened: as §1

[9] = test system: momingglory (Ipomoea coccinea); conditions: Preemergence
Procedure, shortened: as §1

[10] = test system: wild poinsettia (Euphorbia heterophylla); conditions: Preemergence
Procedure, shortened: as §1

[11] = test system: velvetleaf (Abutilon theophrasti); conditions: Preemergence
Procedure, shortened: as §1

[12] = test system: johnsongrass (Sorghum halepense); conditions: Preemergence
Procedure, shortened: as §1

soybean (Glycine max) = test system: soybean (Glycine max)
Procedure, shortened: as §1

corn (Zea mays) = test system: corn (Zea mays)
Procedure, shortened: as §1

[13] = 62 g ai/ha, Postemergence, scale 0 to 100 (0 no effect, 100 complete control)
[14] = 62 g ai/ha, Preemergence, scale 0 to 100 (0 no effect, 100 complete control)
[15] = 125 g ai/ha, Postemergence, scale 0 to 100 (0 no effect, 100 complete control)
[16] = 125 g ai/ha, Preemergence, scale 0 to 100 (0 no effect, 100 complete control)
[17] = 250 g ai/ha, Postemergence, scale 0 to 100 (0 no effect, 100 complete control)
[18] = Postemergence, 31 g ai/ha, visual, scale 0 no effect to 100 complete control
[19] = Preemergence, 31 g ai/ha, scale 0 to 100, 0 no effect, 100 complete control
[20] = Preemergence, 250 g ai/ha, visual, scale 0 no effect to 100 complete control
[21] = Preemergence, 125 g ai/ha, visual, scale 0 no effect to 100 complete control
[22] = 62 g ai/ha, scale 0 to 100 (0 no effect, 100 complete control)
[23] = 31 g ai/ha, scale 0 to 100, 0 no effect, 100 complete control
[24] = 125 g ai/ha, visual, scale 0 no effect to 100 complete control
[25] = 250 g ai/ha, visual, scale 0 no effect to 100 complete control
[26] = 125 g ai/ha, scale 0 to 100 (0 no effect, 100 complete control)
[27] = Preemergence, 16 g ai/ha, scale 0 to 100, 0 no effect, 100 complete control
[28] = 16 g ai/ha, scale 0 to 100, 0 no effect, 100 complete control

Cc1nn(C)c(=O)c(-c2ccc(F)c3ccccc23)c1O [Compound 41]
Plant response rating, Pigweed, Palmer [1, 13]: 60 | Plant response rating, Pigweed, Palmer [1, 14]: 85 | Plant response rating, Pigweed, Palmer [1, 15]: 90 | Plant response rating, Pigweed, Palmer [1, 16]: 75 | Plant response rating, Pigweed, Palmer [1, 17]: 95 | Plant response rating, Pigweed, Palmer [1, 18]: 50 | Plant response rating, Pigweed, Palmer [1, 19]: 15 | Plant response rating, Pigweed, Palmer [1, 20]: 85 | Plant response rating, Dayflower, VA [2, 13]: 40 | Plant response rating, Dayflower, VA [2, 14]: 40 | Plant response rating, Dayflower, VA [2, 15]: 85 | Plant response rating, Dayflower, VA [2, 17]: 90 | Plant response rating, Dayflower, VA [2, 18]: 50 | Plant response rating, Dayflower, VA [2, 19]: 15 | Plant response rating, Dayflower, VA [2, 21]: 70 | Plant response rating, Dayflower, VA [2, 20]: 80 | Plant response rating, Ryegrass, Italian [3, 13]: 85 | Plant response rating, Ryegrass, Italian [3, 14]: 100 | Plant response rating, Ryegrass, Italian [3, 15]: 85 | Plant response rating, Ryegrass, Italian [3, 16]: 100 | Plant response rating, Ryegrass, Italian [3, 17]: 90 | Plant response rating, Ryegrass, Italian [3, 18]: 80 | Plant response rating, Ryegrass, Italian [3, 19]: 98 | Plant response rating, Ryegrass, Italian [3, 20]: 100 | Plant response rating, Lambsquarters [4, 22]: 100 | Plant response rating, Lambsquarters [4, 23]: 35 | Plant response rating, Lambsquarters [4, 24]: 100 | Plant response rating, Lambsquarters [4, 25]: 100 | Plant response rating, Foxtail, Green [5, 22]: 25 | Plant response rating, Foxtail, Green [5, 23]: 20 | Plant response rating, Foxtail, Green [5, 24]: 50 | Plant response rating, Foxtail, Green [5, 25]: 75 | Plant response rating, Nutsedge, Yellow [6, 22]: 65 | Plant response rating, Nutsedge, Yellow [6, 26]: 75 | Plant response rating, Nutsedge, Yellow [6, 23]: 25 | Plant response rating, Nutsedge, Yellow [6, 25]: 85 | Plant response rating, Barnyardgrass [7, 13]: 35 | Plant response rating, Barnyardgrass [7, 14]: 25 | Plant response rating, Barnyardgrass [7, 15]: 50 | Plant response rating, Barnyardgrass [7, 17]: 60 | Plant response rating, Barnyardgrass [7, 18]: 20 | Plant response rating, Barnyardgrass [7, 19]: 10 | Plant response rating, Barnyardgrass [7, 21]: 40 | Plant response rating, Barnyardgrass [7, 20]: 65 | Plant response rating, Arrowleaf Sida [8, 13]: 90 | Plant response rating, Arrowleaf Sida [8, 14]: 50 | Plant response rating, Arrowleaf Sida [8, 15]: 95 | Plant response rating, Arrowleaf Sida [8, 17]: 90 | Plant response rating, Arrowleaf Sida [8, 18]: 85 | Plant response rating, Arrowleaf Sida [8, 19]: 20 | Plant response rating, Arrowleaf Sida [8, 21]: 98 | Plant response rating, Arrowleaf Sida [8, 20]: 100 | Plant response rating, Morningglory [9, 22]: 50 | Plant response rating, Morningglory [9, 26]: 90 | Plant response rating, Morningglory [9, 23]: 30 | Plant response rating, Morningglory [9, 25]: 95 | Plant response rating, Poinsettia, Wild [10, 22]: 40 | Plant response rating, Poinsettia, Wild [10, 26]: 40 | Plant response rating, Poinsettia, Wild [10, 23]: 15 | Plant response rating, Poinsettia, Wild [10, 25]: 65 | Plant response rating, Velvetleaf [11, 22]: 85 | Plant response rating, Velvetleaf [11, 26]: 95 | Plant response rating, Velvetleaf [11, 23]: 20 | Plant response rating, Velvetleaf [11, 25]: 100 | Plant response rating, Johnsongrass [12, 22]: 0 | Plant response rating, Johnsongrass [12, 23]: 0 | Plant response rating, Johnsongrass [12, 24]: 0 | Plant response rating, Johnsongrass [12, 25]: 25 | Plant response rating, Soybean (soybean (Glycine max); [13]): 40 | Plant response rating, Soybean (soybean (Glycine max); [14]): 35 | Plant response rating, Soybean (soybean (Glycine max); [15]): 60 | Plant response rating, Soybean (soybean (Glycine max); [16]): 20 | Plant response rating, Soybean (soybean (Glycine max); [17]): 75 | Plant response rating, Soybean (soybean (Glycine max); [18]): 30 | Plant response rating, Soybean (soybean (Glycine max); [19]): 0 | Plant response rating, Soybean (soybean (Glycine max); [20]): 65 | Plant response rating, Corn (corn (Zea mays); [13]): 0 | Plant response rating, Corn (corn (Zea mays); [14]): 0 | Plant response rating, Corn (corn (Zea mays); [15]): 0 | Plant response rating, Corn (corn (Zea mays); [17]): 5 | Plant response rating, Corn (corn (Zea mays); [18]): 0 | Plant response rating, Corn (corn (Zea mays); [19]): 0 | Plant response rating, Corn (corn (Zea mays); [21]): 0 | Plant response rating, Corn (corn (Zea mays); [20]): 25

COC(=O)Oc1c(C)nn(C)c(=O)c1-c1c(C)sc2ccc(C)cc12 [Compound 80]
Plant response rating, Pigweed, Palmer [1, 14]: 70 | Plant response rating, Pigweed, Palmer [1, 16]: 70 | Plant response rating, Pigweed, Palmer [1, 27]: 20 | Plant response rating, Pigweed, Palmer [1, 19]: 35 | Plant response rating, Dayflower, VA [2, 14]: 0 | Plant response rating, Dayflower, VA [2, 16]: 10 | Plant response rating, Dayflower, VA [2, 27]: 0 | Plant response rating, Dayflower, VA [2, 19]: 0 | Plant response rating, Ryegrass, Italian [3, 14]: 98 | Plant response rating, Ryegrass, Italian [3, 16]: 98 | Plant response rating, Ryegrass, Italian [3, 27]: 50 | Plant response rating, Ryegrass, Italian [3, 19]: 70 | Plant response rating, Lambsquarters [4, 22]: 98 | Plant response rating, Lambsquarters [4, 26]: 100 | Plant response rating, Lambsquarters [4, 28]: 65 | Plant response rating, Lambsquarters [4, 23]: 100 | Plant response rating, Foxtail, Green [5, 22]: 50 | Plant response rating, Foxtail, Green [5, 26]: 65 | Plant response rating, Foxtail, Green [5, 28]: 0 | Plant response rating, Foxtail, Green [5, 23]: 15 | Plant response rating, Nutsedge, Yellow [6, 22]: 40 | Plant response rating, Nutsedge, Yellow [6, 26]: 35 | Plant response rating, Nutsedge, Yellow [6, 28]: 5 | Plant response rating, Nutsedge, Yellow [6, 23]: 10 | Plant response rating, Barnyardgrass [7, 14]: 20 | Plant response rating, Barnyardgrass [7, 16]: 20 | Plant response rating, Barnyardgrass [7, 27]: 0 | Plant response rating, Barnyardgrass [7, 19]: 0 | Plant response rating, Arrowleaf Sida [8, 14]: 35 | Plant response rating, Arrowleaf Sida [8, 16]: 25 | Plant response rating, Arrowleaf Sida [8, 27]: 0 | Plant response rating, Arrowleaf Sida [8, 19]: 0 | Plant response rating, Morningglory [9, 22]: 70 | Plant response rating, Morningglory [9, 26]: 75 | Plant response rating, Morningglory [9, 28]: 0 | Plant response rating, Morningglory [9, 23]: 65 | Plant response rating, Poinsettia, Wild [10, 22]: 0 | Plant response rating, Poinsettia, Wild [10, 26]: 40 | Plant response rating, Poinsettia, Wild [10, 28]: 0 | Plant response rating, Poinsettia, Wild [10, 23]: 0 | Plant response rating, Velvetleaf [11, 22]: 70 | Plant response rating, Velvetleaf [11, 26]: 90 | Plant response rating, Velvetleaf [11, 28]: 0 | Plant response rating, Velvetleaf [11, 23]: 20 | Plant response rating, Johnsongrass [12, 22]: 80 | Plant response rating, Johnsongrass [12, 26]: 80 | Plant response rating, Johnsongrass [12, 23]: 0 | Plant response rating, Soybean (soybean (Glycine max); [14]): 0 | Plant response rating, Soybean (soybean (Glycine max); [16]): 0 | Plant response rating, Soybean (soybean (Glycine max); [27]): 0 | Plant response rating, Soybean (soybean (Glycine max); [19]): 0 | Plant response rating, Corn (corn (Zea mays); [14]): 0 | Plant response rating, Corn (corn (Zea mays); [16]): 0 | Plant response rating, Corn (corn (Zea mays); [27]): 0 | Plant response rating, Corn (corn (Zea mays); [19]): 0
